Data on one compound can be found in patent US20060178435A1, “Apogossypolone and the uses thereof” (The Regents of the University of Michigan, priority 2004, published 2006).

In series [1] the target is recombinant human Bcl-2 (Homo sapiens, UniProt P10415). In words: Fluorescence polarization binding assay for Bcl-2 (Bid-FAM peptide displacement).
In series [2] the target is T1, recombinant human Bcl-xL (Homo sapiens, UniProt Q07817).
T1 construct: fused to a His-tag without the C-terminus hydrophobic tail; His-tag
In words: Fluorescence polarization binding assay for Bcl-xL (Bak-Flu peptide displacement). The text has this: Fluorescence polarization (FP)-based binding assays for Bcl-2 and Bcl-xL were developed and optimized using recombinant human Bcl-2 and Bcl-xL proteins, a Bid BH3 peptide labeled with 6-carboxyfluorescein succinimidyl ester (FAM) and Bak BH3 peptide labeled with 6-(fluorescein-5(6)-carboxamido) hexanoic acid (Flu). The FP-based binding assays measure the ability of an inhibitor to displace either Bid-FAM or Bak-Flu peptide from Bcl-2 or Bcl-xL protein, respectively. The dose-dependent binding experiments were carried out with serial dilutions of the tested compounds in DMSO. For the Bcl-2 binding assay, a 5 μl sample of the inhibitor and preincubated recombinant His-fused soluble Bcl-2 protein (120 nM) with Bid-FAM peptide (10 nM) in the assay buffer (100 mM potassium phosphate, pH 7.5; 100 μg/ml bovine gamma globulin; 0.02% sodium azide, purchased from Invitrogen, Life Technologies), were added in Dynex 96-well, black, round-bottom plates (Fisher Scientific), to produce a final volume of 125 μl. […] The polarization values were measured after 3-4 hr incubation, using an ULTRA READER (Tecan U.S. Inc., Research Triangle Park, N.C.). The Ki value was calculated using a modified Cheng-Prusoff equation based upon the Kd value for the Bid-FAM peptide to Bcl-2, the measured IC50 value, and the concentrations of the protein and Bid-FAM. […]

Series [3] relates to PC-3 prostate cancer cell line. In words: Inhibition of cell growth, MTT assay, PC-3. The series is classed as cell-based, human. As for the experimental part:
(§1) A direct comparison of (−)-gossypol, apogossypol and apogossypolone for their activity in inhibition of cell growth in PC-3 and LnCap prostate cancer cell lines was carried out.

Series [4] relates to LnCap prostate cancer cell line. In words: Inhibition of cell growth, MTT assay, LnCap. Type of series: cell-based. Particulars: Homo sapiens, LNCaP, read-out: IC50, inhibition of cell growth. The protocol:
as §1

Series [5] deals with MDA-MB-231 (subclone 2LMP) breast cancer cell line. In words: Cell growth inhibition, MDA-MB-231 (subclone 2LMP). The series is classed as cell-based, human. As for the experimental part: as §1
(§2) Additional cell growth inhibition studies were performed using the MDA-MB-231 (subclone 2LMP), T47D, and MDA-MB-435 breast cancer cell lines. Racemic gossypol, apogossypol, apogossypolone, (+)-apogossypol, (−)-apogossypol, and tetra-acetyl apogossypolone (Formula VIII) were tested as described above.

The test system of series [6] is MDA-MB-435 breast cancer cell line. In words: Cell growth inhibition, MDA-MB-435. Type of series: cell-based, human. As for the experimental part: as §1, §2
The subject of series [7] is T47D breast cancer cell line. In words: Cell growth inhibition, T47D. The series is classed as cell-based, human. The protocol: as §1, §2
The nature of series [8]: Storage stability of the sample. Type of series: physicochemical. The settings on record: stored at room temperature for several weeks without the protection of nitrogen.
Series [9] can be described thus: Maximal tolerated dose (MTD) in mice. The series is classed as in vivo. The settings on record: for MTD: mouse, in vivo. As for the experimental part:
To confirm this prediction, the maximal tolerated dose (MTD) of apogossypolone and (−)-gossypol was evaluated in mice using two different routes of administrations (oral and intravenous). For oral administration (oral gavage 5 days/week), the MTD of apogossypolone was above 240 mg/kg while the MTD for (−)-gossypol was about 50 mg/kg. For intravenous administration (every other day and 3 days/week), the MTD of apogossypolone was about 80 mg/kg while the MTD for (−)-gossypol was about 10 mg/kg. In both routes of administration, the MTD of apogossypolone was 8-times better than (−)-gossypol.

The test system of series [10] is PC-3 xenografts. In words: Antitumor activity in PC-3 xenograft model, alone or with X-ray irradiation. Type of series: in vivo, nude mice. The settings on record: for complete tumor regression: Day 57. As for the experimental part:
An in vivo study of apogossypolone was carried out using a PC-3 xenograft model in nude mice to evaluate the antitumor activity of apogossypolone alone or in combination with X-ray irradiation. Nude mice with established PC-3 xenografts (150 mm^3 in size) were treated with (1) apogossypolone 200 mg/kg p.o. q.d. 5×4 weeks; (2) fractionated X-ray irradiation to the tumor only, with the animal body shielded, at a dose of 2 Gy q.d. 5×3 weeks, total 30 Gy; and (3) a combination of apogossypolone and radiation.

Series [11] addresses T2, human Mcl-1 protein (amino acids 171-327) (Homo sapiens, UniProt Q07820).
T2 construct: The fragment encoding amino acids 171-327 was cloned into the pHis-TEV vector; 8xHis (N); made in house; host or cells: E. coli BL21(DE3)
In words: Fluorescence polarization binding assay for the Mcl-1 protein (Flu-Bid-21 probe).

T2 sequence (Q07820 171-327): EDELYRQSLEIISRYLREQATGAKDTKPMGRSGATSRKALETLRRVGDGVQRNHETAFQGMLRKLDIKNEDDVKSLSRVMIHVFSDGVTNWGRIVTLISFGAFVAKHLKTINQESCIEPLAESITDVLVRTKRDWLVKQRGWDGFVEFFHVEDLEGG
T1 sequence (Q07817 1-209 limits assumed): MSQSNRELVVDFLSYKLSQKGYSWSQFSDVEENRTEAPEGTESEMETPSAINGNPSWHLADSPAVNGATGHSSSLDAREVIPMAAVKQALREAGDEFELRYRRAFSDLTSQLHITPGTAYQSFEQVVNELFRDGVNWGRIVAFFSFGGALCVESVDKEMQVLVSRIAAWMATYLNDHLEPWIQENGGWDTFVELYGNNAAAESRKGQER
Chain of recombinant human Bcl-2 (P10415 92-205 limits assumed): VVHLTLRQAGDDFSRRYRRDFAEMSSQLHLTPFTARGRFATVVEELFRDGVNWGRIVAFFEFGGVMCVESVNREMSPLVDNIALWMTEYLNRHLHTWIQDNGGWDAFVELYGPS

`CC1=C(C2=C(C)C(=O)c3c(cc(O)c(O)c3C(C)C)C2=O)C(=O)c2cc(O)c(O)c(C(C)C)c2C1=O` (racemic) [apogossypolone, 6,7,6′,7′-Tetrahydroxy-5,5′-diisopropyl-3,3′-dimethyl-[2,2′]binaphthalenyl-1,4,1′,4′-tetraone]: the Ki in series [1] is 76 nM; in [2] it was 1270 nM; in series [11], 51 ± 20 nM. The half-inhibitory concentration (IC50) in series [3] (Homo sapiens, PC-3, read-out: IC50, inhibition of cell growth) came to 2200 nM; in [4], 1300 nM; in [5] (Homo sapiens, MDA-MB-231, read-out: IC50 (μM) MDA-MB-231), 1.27 µM; in series [6] (Homo sapiens, MDA-MB-435, read-out: IC50 (μM) MDA-MB-435), 4.82 µM; in series [7] (Homo sapiens, T47D, read-out: IC50 (μM) T47D), 9.26 µM. Moreover, the “potency relative to (−)-gossypol in inhibition of cell growth” value in [3] (PC-3 cell line, 3-5 independent experiments) is given as 3-4 times. For the same compound, the “fold more potent than gossypol” value in [5] (MDA-MB-231 cell line) is listed as “about 9 fold”; in [6] (MDA-MB-435 cell line), “about 2 fold”; in [7] (T47D cell line), “about 2 fold”. The decomposition on storage entry in series [8] is reported as “no decomposition was detected”. Besides, the “MTD relative to (−)-gossypol” value in series [9] (both routes of administration) is 8 times. The maximum tolerated dose (MTD) was approximately 80 mg/kg in [9] (intravenous, every other day and 3 days/week); more than 240 mg/kg in [9] (oral gavage 5 days/week). Further, the complete tumor regression entry was “seven out of ten” in series [10] (apogossypolone 200 mg/kg p.o. plus X-ray radiation 2 Gy q.d. 5×3 weeks) and “zero out of ten” in series [10] (apogossypolone alone, 200 mg/kg p.o.). In series [10] (apogossypolone alone, 200 mg/kg p.o. q.d. 5×4 weeks), the “effect on the tumors” value was “limited effect”. Moreover, in series [10] (combination with X-ray radiation, P<0.0001, two-way ANOVA, n=10), the “enhancement of radiation-mediated tumor inhibition” value is on record as “significantly enhanced”. Moreover, in series [11] (Mcl-1), the “fold better binding affinity compared with (−)-gossypol” value was found to be 3.5 fold.
